Assay results published in patent publication US20110306580A1 (DONG WHA PHARMACEUTICAL CO ., LTD., priority 2009, published 2011).

Key:
ROS17/2.8 cells [1] = assay: Cell growth of ROS17/2.8 cells by the MTT method (formed formazan); format: cell-based, rat; settings: for activity at 0.02 µM: Rattus norvegicus, 2×10^−5M Test Compound solution diluted 1000 fold, read-out: Amount of formed formazan, Solution 8 (Test Compound alone); for Relative index of Solution 10 (a group of a drug combination) / Amount of formed formazan, Solution 10 (a group of a drug combination): Test Compound in combination with 1α,25-dihydroxyvitamin D3
Method: 100 μL of a 10% FCS-αMEM comprising either DMSO and ethanol (referred to as Solution 7, hereinafter), a Test Compound solution and ethanol (referred to as Solution 8, hereinafter), a 1α,25-dihydroxyvitamin D3 solution and DMSO (referred to as Solution 9, hereinafter) or a Test Compound solution and the 1α,25-dihydroxyvitamin D3 solution (referred to as Solution 10, hereinafter) was dispensed. The ROS17/2.8 cells were inoculated to a medium at a density of 5×10^3 cells/100 μL/well. After culture of the cells for about 48 hours, the effect of Test Compound and 1α,25-dihydroxyvitamin D3 on the cell growth of the ROS17/2.8 cells was evaluated using the MTT method. Namely, after culture of the cells for about 44 hours, an MTT solution (3-[4,5-dimethylthiazol-2-yl]-2,5-diphenyltetrazolium bromide 2 mg/mL) was added in an amount of 25 μL/well, and the cells were further cultured for four hours. After the medium was removed, DMSO was added in an amount of 100 μL/well so as to dissolve the formed formazan. The amount of the formed formazan was determined by measuring the absorbance (at 560 nm) of the solution by a microplate reader.
The 10% FCS-αMEM comprising Solution 7 was prepared by diluting DMSO by 1000 fold with the 10% FCS-αMEM, and diluting ethanol by 10000 fold with the 10% FCS-αMEM. The 10% FCS-αMEM comprising Solution 8 was prepared by diluting a 2×10^−5M Test Compound solution by 1000 fold with the 10% FCS-αMEM, and diluting ethanol by 10000 fold with the 10% FCS-αMEM. The 10% FCS-αMEM comprising Solution 9 was prepared by diluting 2×10^−3M 1α,25-dihydroxyvitamin D3 solution by 10000 fold with the 10% FCS-αMEM, and diluting DMSO by 1000 fold with the 10% FCS-αMEM. The 10% FCS-αMEM comprising Solution 10 was prepared by diluting a 2×10^−5M Test Compound solution by 1000 fold with the 10% FCS-αMEM, and diluting 2×10^−3M 1α,25-dihydroxyvitamin D3 solution by 10000 fold with the 10% FCS-αMEM.
The amount of the formed formazan in each solution addition group was obtained in terms of a percentage to the average value of the amounts of formed formazan in four wells in a Solution 7 addition group. All the determined values were shown in terms of the average value±standard deviation of the four wells of each solution addition group.

ROS17/2.8 cells [2] = assay: Cell growth of ROS17/2.8 cells by BrdU uptake (Cell Proliferation Biotrak ELISA); format: cell-based, rat; settings: for Relative index of BrdU uptake amount, Solution 3 (1α,25-dihydroxyvitamin D3 alone): 10^−4M 1α,25-dihydroxyvitamin D3 solution diluted 1000 fold; for Cell growth of ROS17/2.8 cells compared with Solution 1 (FIG. 1) / Cell growth of ROS17/2.8 cells compared with Solution 1 (FIG. 2): BrdU uptake, Dunnett multiple comparison test; for Product of relative indices of single agent addition group: Bürgi's method
Method: ROS17/2.8 cells were inoculated to a 96-well plate at a density of 2×10^4 cells/well. An αMEM medium to which 10% fetal calf serum had been added (referred to as the 10% FCS-αMEM, hereinafter) was used as a medium. After culture of the cells overnight, the medium was removed from each well, and an αMEM medium to which 0.5% fetal calf serum had been added (referred to as the 0.5% FCS-αMEM, hereinafter) was added. After culture of the cells for about six hours, the medium was removed from each well, and a 10% FCS-αMEM comprising DMSO and ethanol (referred to as Solution 1, hereinafter), a Compound 1 solution and ethanol (referred to as Solution 2, hereinafter), a 1α,25-dihydroxyvitamin D3 solution and DMSO (referred to as Solution 3, hereinafter) or the Compound 1 solution and the 1α,25-dihydroxyvitamin D3 solution (referred to as Solution 4, hereinafter) was added. The 10% FCS-αMEM comprising Solution 1 was prepared by diluting DMSO and ethanol by 1000 fold with the 10% FCS-αMEM. The 10% FCS-αMEM comprising Solution 2 was prepared by diluting a 10^−5M Compound 1 solution and ethanol by 1000 fold with the 10% FCS-αMEM. The 10% FCS-αMEM comprising Solution 3 was prepared by diluting a 10^−4M 1α,25-dihydroxyvitamin D3 solution and DMSO by 1000 fold with the 10% FCS-αMEM. The 10% FCS-αMEM comprising Solution 4 was prepared by diluting the 10^−5M Compound 1 solution and the 10^−4M 1α,25-dihydroxyvitamin D3 solution by 1000 fold with the 10% FCS-αMEM. After culture of the cells for about 24 hours, the effect of Compound 1 and 1α,25-dihydroxyvitamin D3 on the cell growth of the ROS17/2.8 cells was evaluated using Amersham Cell Proliferation Biotrak ELISA system, version 2 (manufactured by GE healthcare bioscience K.K., Code No. RPN250). Namely, growing cells were made take 5-bromo-2′-deoxyuridine (BrdU) into the cells, and the cells were detected by ELISA using peroxidase-labeled anti-BrdU antibodies. The amount of BrdU taken into the cells was determined by measuring absorbance (450 nm) of the solution by a microplate reader.
The BrdU uptake amount in each solution addition group was obtained in terms of a percentage to the average value of the BrdU uptake amount in four wells in a Solution 1 addition group. The graph was made using the average value±standard error of the four wells of each solution addition group.
In the Bürgi's method, the value of a standard group is […] the values of each treated group to obtain a relative index. […] If they are the same, it is determined that there is an added action. In contrast, if the value of the combination treatment group is poor, it is determined that there is an antagonistic action.
ROS17/2.8 cells were inoculated to a 96-well plate at a density of 5×10^3 cells/well. The 10% FCS-αMEM was used as a medium. After culture of the cells overnight, the medium was removed from each well, and the 0.5% FCS-αMEM was added. After culture of the cells for about six hours, the medium was removed from each well, and the 10% FCS-αMEM comprising DMSO and ethanol (referred to as Solution 1, hereinafter), a Compound 11 solution and ethanol (referred to as Solution 5, hereinafter), the 1α,25-dihydroxyvitamin D3 solution and DMSO (referred to as Solution 3, hereinafter) or the Compound 11 solution and the 1α,25-dihydroxyvitamin D3 solution (referred to as Solution 6, hereinafter) was added. The 10% FCS-αMEM comprising Solution 1 was prepared by diluting DMSO and ethanol by 1000 fold with the 10% FCS-αMEM. The 10% FCS-αMEM comprising Solution 5 was prepared by diluting a 10^−5M Compound 11 solution and ethanol by 1000 fold with the 10% FCS-αMEM. The 10% FCS-αMEM comprising Solution 3 was prepared by diluting a 10^−4M 1α,25-dihydroxyvitamin D3 solution and DMSO by 1000 fold with the 10% FCS-αMEM.

[3] = amount of formed formazan, Solution 7 = 1.00
[4] = percentage to Solution 7 addition group, about 48 hours, average ± standard deviation of four wells

SMILES | activity at 0.02 µM (ROS17/2.8 cells [1]; [4]) [%] | Relative index of Solution 10 (a group of a drug combination) (ROS17/2.8 cells [1]; [3]) | Amount of formed formazan, Solution 10 (a group of a drug combination) (ROS17/2.8 cells [1]; [4]) | Relative index of Solution 8 (Test Compound alone) (ROS17/2.8 cells [1]; [3]) | further results
C=C1/C(=C\C=C2/CCC[C@]3(C)[C@@H]([C@H](C)CCCC(C)(C)O)CC[C@@H]23)C[C@@H](O)C[C@@H]1O [1α,25-dihydroxyvitamin D3, reference compound] | – | – | – | – | Relative index of Solution 9 (1α,25-dihydroxyvitamin D3 alone) (ROS17/2.8 cells [1]; [3]): 1.05; Amount of formed formazan, Solution 9 (1α,25-dihydroxyvitamin D3 alone) (ROS17/2.8 cells [1]; percentage to Solution 7 addition group, 2×10^−3M 1α,25-dihydroxyvitamin D3 solution diluted 10000 fold, about 48 hours, average ± standard deviation of four wells): 105 ± 3.1%; Relative index of BrdU uptake amount, Solution 3 (1α,25-dihydroxyvitamin D3 alone) (ROS17/2.8 cells [2]; Example 1, 2×10^4 cells/well, about 24 hours, Solution 1 = 1.000): 1.220; Cell growth of ROS17/2.8 cells compared with Solution 1 (FIG. 1) (ROS17/2.8 cells [2]; Example 1): not significantly different; Relative index of BrdU uptake amount, Solution 3 (1α,25-dihydroxyvitamin D3 alone) (ROS17/2.8 cells [2]; Example 2, 5×10^3 cells/well, about 24 hours, Solution 1 = 1.000): 1.195; Cell growth of ROS17/2.8 cells compared with Solution 1 (FIG. 2) (ROS17/2.8 cells [2]; Example 2): not significantly different
Cc1nc(-c2ccc(OCCCCCOc3ccc(/C(N)=N/O)cc3)cc2)c(C(C)C)s1 [Compound 1, N-hydroxy-4-{5-[4-(5-isopropyl-2-methyl-1,3-thiazol-4-yl)phenoxy]pentoxy}benzamidine] | – | – | – | – | Relative index of BrdU uptake amount, Solution 2 (Compound 1 alone) (ROS17/2.8 cells [2]; Example 1, 2×10^4 cells/well, 10^−5M Compound 1 solution diluted 1000 fold, about 24 hours, Solution 1 = 1.000): 1.011; Cell growth of ROS17/2.8 cells compared with Solution 1 (FIG. 1) (ROS17/2.8 cells [2]; Example 1): not significantly different; Product of relative indices of single agent addition group (ROS17/2.8 cells [2]; Example 1, Compound 1 alone × 1α,25-dihydroxyvitamin D3 alone): 1.233
CCCN(CCC)c1nc(-c2ccc(OCCCCCOc3ccc(/C(N)=N/O)cc3)cc2)c(CC)s1 [Compound 11, N-hydroxy-4-{5-[4-(2-dipropylamino-5-ethyl-1,3-thiazol-4-yl)phenoxy]pentoxy}benzamidine] | 103 ± 2.4 | 1.15 | 115 ± 4.4 # % | 1.03 | Relative index of BrdU uptake amount, Solution 5 (Compound 11 alone) (ROS17/2.8 cells [2]; Example 2, 5×10^3 cells/well, 10^−5M Compound 11 solution diluted 1000 fold, about 24 hours, Solution 1 = 1.000): 1.023; Cell growth of ROS17/2.8 cells compared with Solution 1 (FIG. 2) (ROS17/2.8 cells [2]; Example 2): not significantly different; Product of relative indices of single agent addition group (ROS17/2.8 cells [2]; Example 2, Compound 11 alone × 1α,25-dihydroxyvitamin D3 alone): 1.223
CC(C)c1nc(-c2ccc(OCCCCCOc3ccc(/C(N)=N/O)cc3)cc2)c(CCN(C(=O)c2ccncc2)C2CC2)s1 [Compound 30, N-hydroxy-4-{5-[4-(5-(2-(cyclopropyl(pyridin-4-carbonyl)amino)ethyl}-2-isopropyl-1,3-thiazol-4-yl)phenoxy]pentoxy}benzamidine] | 99 ± 5.3 | 1.13 | 113 ± 1.2 ## % | 0.99 | –
CNC(=O)c1sc(N)nc1-c1ccc(OCCCCCOc2ccc(/C(N)=N/O)cc2)cc1 [Compound 31, N-hydroxy-4-{5-[4-(2-amino-5-(N-methylcarbamoyl)-1,3-thiazol-4-yl)phenoxy]pentoxy}benzamidine] | 101 ± 2.9 | 1.10 | 110 ± 0.4 # % | 1.01 | –
Cc1nc(-c2ccc(OCCCCCOc3ccc(/C(N)=N/O)cc3)cc2)c(Cn2ccnc2)s1 [Compound 32, N-hydroxy-4-{5-[4-(5-(imidazol-1-ylmethyl)-2-methyl-1,3-thiazol-4-yl]phenoxy}pentoxy}benzamidine] | 97 ± 3.3 | 1.10 | 110 ± 2.4 # % | 0.97 | –
CCN(C)c1nc(-c2ccc(OCCCCCOc3ccc(/C(N)=N/O)cc3)cc2)c(CN2CCOCC2)s1 [Compound 33, N-hydroxy-4-{5-[4-{2-ethylmethylamino-5-(morpholin-4-ylmethyl)-1,3-thiazol-4-yl)phenoxy]pentoxy}benzamidine] | 106 ± 1.7 | 1.13 | 113 ± 1.9 ## % | 1.06 | –
Cc1nc(-c2ccc(OCCCCCOc3ccc(/C(N)=N/O)cc3)cc2)c(N(C)C)s1 [Compound 35, N-hydroxy-4-{5-[4-(5-dimethylamino-2-methyl-1,3-thiazol-4-yl)phenoxy]pentoxy}benzamidine] | 101 ± 2.3 | 1.12 | 112 ± 3.0 ## % | 1.01 | –
